Test results reported in article PMC3154276, “The Effect of the Potential PhoQ Histidine Kinase Inhibitors on Shigella flexneri Virulence” (PLoS ONE, 2011).

Assays:
[1] = target: T1, SF-PhoQc (Shigella flexneri, UniProt Q83RR1); assay: Pyrophosphate Reagent coupled enzymatic activity assay of SF-PhoQc; assay type: biochemical, S. flexneri 2a 301; details: for decrease of SF-PhoQc catalyzed consumption of ATP: Pyrophosphate Reagent
T1 construct: The amplified DNA segment encodes PhoQ HK amino acids 251–486; made in house; host or cells: E. coli JM109
Procedure: The enzymatic activity of SF-PhoQc was determined using the Pyrophosphate Reagent, in which ATP initiates the reaction and ADP generated by ATP is accompanied by the reduction of NADH to NAD^+. The rate of NADH reduction to NAD^+ is detected by a change in absorbance readings at 340 nm. The activity of SF-PhoQc is measured by detecting a decrease in NADH at A340. Recombinant SF-PhoQc (25 µmol/L) was added to initiate the reaction, and the A340 value was recorded by SoftMax vision 4.8 each minute for 30 minutes. The A340 value reduced from 1.47 to 0.65 in the presence of SF-PhoQc (Figure 2).
Figure 2 The activity of recombinant SF-PhoQc. The activity of SF-PhoQc from the Pyrophosphate Reagent was shown. All assays were conducted in a 96-well microplate spectrophotometer. The assay mixture (total volume was 200 µl) contained 25 mmol/L KCl, 2.5 mmol/L MgCl2, 2 mmol/L ATP, 1 mmol/L phosphoendpyruvate, 0.35 mmol/L NADH, 1.5 U/ml PK, 1.25 U/ml LDH and 50 mmol/L Tris-Cl (pH 8.0). Protein SF-PhoQc was added to a final concentration of 25 µmol/L to start the reaction. After SF-PhoQc was added, the A340 value was recorded by SoftMax vision 4.8 every minute for 30 minutes.
The enzymatic activity of SF-PhoQc was measured using both a Pyrophosphate Reagent (Sigma-Aldrich, MO, USA) and a Luminescent Kinase Assay (Promega, WI, USA). The Pyrophosphate Reagent was performed to confirm the inhibitory activities of the effective potential PhoQ inhibitors in the bioinformatics approach. All reactions were carried out in solid black, flat-bottomed 96-well plates. The Pyrophosphate Reagent was performed at 28°C by monitoring the decrease of NADH by a decrease in absorbance readings at 340 nm (ε340 = 6180 M^−1·cm^−1) in the presence of ATP. The final reaction mixture for the Pyrophosphate Reagent contained 25 µmol/L purified SF-PhoQc, 25 mmol/L KCl, 2.5 mmol/L MgCl2, 2 mmol/L ATP, 1 mmol/L phosphoendpyruvate, 0.35 mmol/L NADH, 1.5 U/ml PK, 1.25 U/ml LDH and 50 mmol/L Tris-Cl (pH 8.0). The enzyme activity was determined in the presence of various concentrations of potential PhoQ inhibitors […] to investigate dose-dependent inhibition effects. The A340 value was recorded by SoftMax vision 4.8 every minute, for 30 minutes. The rate of SF-PhoQc enzymatic activity inhibition by a compound was calculated by the following formula: [drawing 1]
Rp (Ratio of Phosphorylation) was defined as the ratio of the decrease activity of SF-PhoQc treated with compound vs the activity of SF-PhoQc treated without compounds. Rp was stand for the percentage of decrease activity of SF-PhoQc.
IC50(the concentration of inhibition of 50%)values of potential PhoQ inhibitors were obtained by fitting the data to a sigmoid dose–response equation using Origin 7.0 software (OriginLab, Northampton, USA).

[2] = test system: S. flexneri 2a 301; assay: Gentamicin protection assay, HeLa cell invasion by Sf301; assay type: cell-based; details: bacteria treated 8 h, Figure S4
Procedure: Supplementary file pone.0023100.s004.tif: Figure S4 The effects of potential PhoQ inhibitors on cell invasion of Shigella Sf 301. […] The bacteria were treated with each of the four potential PhoQ inhibitors grown for 8 h. Then the bacteria were inoculated with HeLa cells for 60 minutes prior to the addition of gentamicin to kill extracellular bacteria. After the incubation, the HeLa cells in each well were lysed in 1 ml of PBS containing 0.1% Triton X-100. The lysates were diluted and plated onto LB agar plates in triplicate. Colonies grown on LB plates were counted. The results of the assays were expressed as the number of bacteria recovered from gentamicin-treated cells divided by the number of inoculated bacteria added to the cell. Values are means ± standard deviations from 6 independent wells. *p<0.01 vs. Sf301. […] (TIF) Click here for additional data file.

[3] = Erythrocyte hemolysis assay; assay type: cell-based; details: human erythrocytes (5% suspension), healthy human erythrocytes
Procedure: The hemolytic activity of the potential PhoQ inhibitors was determined using human erythrocytes. The erythrocytes were washed three times with sterile saline and resuspended to 5% cell concentration prior to assay. Then, 200 µl erythrocyte suspensions containing 25 µmol/L or 100 µmol/L concentrations of each potential PhoQ inhibitors were added in triplicate to the wells of the 96-well microtiter plates. Cells without potential PhoQ inhibitors treatment or with 1% Triton-100 treatment were used as the zero or 100% hemolysis control, respectively. The cell suspensions were incubated for 1 hour at 37°C and centrifuged for 10 minutes at 1200×g. Supernatants (100 µl) were transferred to another sterile plate, and the released hemoglobin was measured absorbance readings at 570 nm. […] The hemolysis assay was repeated twice.

T1 sequence (Q83RR1 251-486): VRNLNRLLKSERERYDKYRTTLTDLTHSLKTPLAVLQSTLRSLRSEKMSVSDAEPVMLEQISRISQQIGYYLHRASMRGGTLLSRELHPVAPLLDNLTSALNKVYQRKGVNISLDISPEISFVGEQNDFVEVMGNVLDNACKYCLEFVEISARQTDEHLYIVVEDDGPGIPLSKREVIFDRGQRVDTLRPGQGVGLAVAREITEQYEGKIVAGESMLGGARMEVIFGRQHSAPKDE

Row | Structure (SMILES) | IC50 [1] [µM] | decrease of SF-PhoQc catalyzed consumption of ATP [1] [%] | effect on HeLa cell invasion ability of Sf301 [2] | hemolysis at 1 h, 25 µmol/L [3] [%] | hemolysis at 1 h, 100 µmol/L [3] [%]
1 | O=C(Nc1ccc(C2(c3cccc(NC(=O)c4cccc5ccccc45)c3)c3ccccc3C(=O)c3ccccc32)cc1)c1ccc2ccccc2c1 [Compound 1] | 12 ± 3.91 | 100 | can inhibit | < 0.1 | < 0.1
2 | CCOc1ccccc1-c1cc(C(=O)N/N=C/c2ccc(OCc3ccccc3)c(OC)c2)c2ccccc2n1 [Compound 2] | 57 ± 1.04 | 82.3 | can inhibit | < 0.1 | < 0.1
3 | O=C(O)c1ccc(Cl)c(-c2ccc(/C=N/NC(=O)c3ccc(Br)cc3)o2)c1 [Compound 3] | 27.8 ± 10.7 | 67.1 | can inhibit | < 0.1 | < 0.1
4 | O=C(O)c1cc(-c2ccc(-c3ccccc3Cl)o2)nc2ccc3ccccc3c12 [Compound 4] | 27.8 ± 5.59 | 65.8 | no effect | < 0.1 | < 0.1
